Patent USRE36832E, “N-heteroaryl-N'-phenylurea derivatives, their production and use” (Nihon Nohyaku Co., LTD, priority 1993, dated 2000)

Assays:
[1] = biological target: T1, acyl-CoA:cholesterol O-acyltransferase (ACAT) (Oryctolagus cuniculus, UniProt G1SFD9); test: Inhibitory activity on acyl-CoA:cholesterol O-acyltransferase (ACAT), intestinal mucosa microsomal fraction, [1-14C]oleyl-CoA incorporation into cholesterol esters; format: biochemical, white rabbit; details: read-out: Inhibition rate %
T1 construct: The intestinal mucosa of a white rabbit was homogenized and microsomal fraction was obtained by stepwise centrifugation; from tissue; host or cells: intestinal mucosa of white rabbit, microsomal fraction
T1 sequence (G1SFD9 1-524): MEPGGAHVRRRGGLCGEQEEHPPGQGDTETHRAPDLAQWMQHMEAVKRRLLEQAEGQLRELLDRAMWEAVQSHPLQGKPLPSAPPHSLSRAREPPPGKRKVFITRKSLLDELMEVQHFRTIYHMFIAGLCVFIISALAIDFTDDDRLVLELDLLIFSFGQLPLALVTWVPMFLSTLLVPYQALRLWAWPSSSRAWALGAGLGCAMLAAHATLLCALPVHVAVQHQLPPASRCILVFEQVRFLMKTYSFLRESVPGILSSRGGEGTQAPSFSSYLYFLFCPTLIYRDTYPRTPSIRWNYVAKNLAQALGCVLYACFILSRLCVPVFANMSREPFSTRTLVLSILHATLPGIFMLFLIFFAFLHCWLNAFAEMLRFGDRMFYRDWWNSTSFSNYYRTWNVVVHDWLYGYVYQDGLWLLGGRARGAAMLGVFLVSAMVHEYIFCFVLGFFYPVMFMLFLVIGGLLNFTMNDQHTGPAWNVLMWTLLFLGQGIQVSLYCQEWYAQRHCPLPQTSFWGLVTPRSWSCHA
Experimental: Inhibitory activity on acyl-CoA:cholesterol Oacyltransferase (ACAT)
The enzyme used in the test was prepared according to the method of Heider et al. [J. Lipid, Res. 24, 1127 (1983)]. The intestinal mucosa of a white rabbit was homogenized and microsomal fraction was obtained by stepwise centrifugation. The microsomal fraction was suspended in 0,154M phosphate buffer (pH 0 7.4) and stored at -80° C. until use.
ACAT activity was determined by a modification of the method of Helgerud et al. [J. Lipid Res. 22, 271 (1981)] by measuring radioactivity incorporated into cholesterol esters from [1-14C]oleyl-CoA, as an indication. As to the ACAT-inhibiting activity of each compound to be tested, the inhibition rate was calculated by the following equation.

serum cholesterol = test: Serum cholesterol lowering activity in hamsters fed on a high-cholesterol diet; format: in vivo, Male Syrian hamsters; details: 30 mg per kg of body weight per day for 4 days, 24 hours after the last administration
Experimental: Serum cholesterol lowering activity in hamsters fed on a high-cholesterol diet
Male Syrian hamsters of 10-week-old were divided into three groups. The first group (normal group) was fed an ordinary diet for 4 days. The second group (control group) was fed a high cholesterol diet (containing 0.5% cholesterol and 8.0% coconut oil for 4 days. The third group (treated group) was fed a high cholesterol diet and was treated with a compound for 4 days. Simultaneously with the beginning of the above feeding, the compound suspended in a 0.5% carboxymethyl cellulose solution was administered to the treated group, in a dose of 30 mg (in terms of the compound) per kg of body weight per day for 4 days. A 0.5% carboxymethyl cellulose solution was also administered to the normal group and the control group in the same manner as above. After 24 hours of the last administration, blood was collected and the cholesterol concentration in serum was measured by an enzymatic method. The reduction rate of the total serum cholesterol concentration was calculated from values obtained for the three groups by the following equation. [formula] wherein A: the serum cholesterol concentration of the control group.
B: the serum cholesterol concentration of the compound treated group.
C: the serum cholesterol concentration of the normal group.

[2] = tested on: cholesterol esterification in macrophages; test: Inhibitory effect on cholesterol esterification in macrophages (J774 A.1 cells, AcLDL-loaded, [14C]oleate incorporation); format: cell-based; details: Mus musculus, Macrophage, read-out: Inhibition rate (%)
Experimental: Inhibitory effect on cholesterol esterification in macrophages
The test was carried out by a modification of the method of Goldstein et al. [Pro. Nat. Acad. Sci. USA 71, 4288 (1974)]. J774 A.1 cells, the mouse macropharge-like cell line, were suspended in Dulbecco's modified Eagle's medium (DMEM) containing 10% fetal calf serum (FCS), in a proportion of 3×10^5 cells per 2 ml and were seeded into in 6-well plates. The cells were cultured under a humidified atmosphere of 95% air/5% CO2 at 37° C. for 24 hours. The medium was replaced by 1 ml of DMEM containing 10% of FCS and 50 μg/ml of acetylated human low density lipoprotein (AcLDL), followed by culturing for 16 hours. Five microliters each compound was dissolved in dimethyl sulfoxide and solution was added to the medium, followed by culturing for another 2 hours. Then, [14C]oleate (2×10^6 dpm/well) bovine serum albumin complex was added in the medium. After 2 hours of culture cells were collected and the cholesterol-esterifying activity was determined by measuring radioactivity incorporated into cholesterol esters in the cells. The recovery of the cholesterol esters was determined by the addition of [3H]cholesteryl oleate, and the esterifying activity was corrected using the recovery. As to the inhibitory activity on cholesterol esterification of the compound to be tested, the inhibition rate was calculated by the following equation. [formula] wherein A: the cholesterol-esterifying activity of AcLDL-loaded cells to which the compound to be tested was-added.
B: the cholesterol-esterifying activity of AcLDL-loaded cells to which dimethyl sulfoxide was added.

inhibition at 0.01 µM [1]	inhibition at 1 µM ([1]; 1 μM)	Structure (SMILES)	Reduction rate (%) of the total serum cholesterol concentration (serum cholesterol)	inhibition at 0.1 µM [2]	inhibition at 1 µM [2]
82.9%	99.4%	CCc1cccc(CC)c1NC(=O)Nc1oc2ccc(Cl)cc2c1-c1ccccc1Cl [Compound 12, N-[5-Chloro-3-(2-chlorophenyl)benzofuran-2-yl]-N'-(2,6-diethylphenyl)urea]	55.0%	93%	99.5%
69.9%		CCc1cccc(CC)c1NC(=O)Nc1sc2cc(C)c(C)cc2c1-c1ccccc1Cl [Compound 80, N-[3-(2-Chlorophenyl)-5,6-dimethyl-1-benzothiophen-2-yl]-N'-(2,6-diethylphenyl)urea]	85.9%	85.3%	96.9%
